These are literature values, as cited in US20060020045A1, “Methods and compositions for treating inflammatory disorders of the gastrointestinal tract” (priority 2004, published 2006).

The test system of the series is dimethylhydrazine-induced colon carcinogenesis. As to conditions: effect only when present during carcinogen administration, not if given 17 weeks following the carcinogen.

Take `CC1=C(CC(=O)O)c2cc(F)ccc2/C1=C\c1ccc([S+](C)[O-])cc1` (stereo not shown) [sulindac]: the tumor incidence entry was “reduce tumor incidence only when present during carcinogen administration”.
